# Laboratory results: patent US20240279184A1, “HETEROAROMATIC ANALOGUES OF 3-BENZYLMENADIONE DERIVATIVES AND PROCESSES FOR THEIR PREPARATION” (CENTRE NATIONAL DE LA RECHERCHE SCIENTIFIQUE, priority 2021, published 2024)
# Assays:
# [1] = test system: Plasmodium falciparum NF54 strain; assay: primary screening of antimalarial activity, Plasmodium falciparum NF54 strain; assay type: cell-based; details: for antimalarial activity compared with the regioisomer (potency and specificity): NF54 strain versus rat L6 myoblasts, MR00418 vs MR00397, MR00419 vs MR00407; for IC50: Plasmodium falciparum NF54 strain, first primary screening
# [2] = test system: rat L6 myoblast cell line; assay: primary screening on the rat L6 myoblast cell line (specificity/cytotoxicity); assay type: cell-based; details: first primary screening
SMILES,antimalarial activity compared with the regioisomer (potency and specificity) [1],IC50 [1] [µM],IC50 [2] [µM]
"CC1=C(Cc2ccc(C(F)(F)F)nc2)C(=O)c2ccccc2C1=O [MRO0418, 2-methyl-3-((6-(trifluoromethyl)pyridin-3-yl)methyl) naphthalene-1,4-dione]",more potent and specific antimalarial activities than the regioisomers,0.006,179
"CC1=C(Cc2cnc(C(F)(F)F)nc2)C(=O)c2ccccc2C1=O [MRO0419, 2-methyl-3-((2-(trifluoromethyl)pyrimidin-5-yl)methyl) naphthalene-1,4-dione]",more potent and specific antimalarial activities than the regioisomers,0.065,48.3
